# What was measured:
# [1] = Plasma concentration in rat at 10 mg/kg, po after 4 hrs; format: ADME, organism-based; parameters: dose 10 mg/kg, route oral
# [2] = Plasma concentration in rat at 5 mg/kg, iv after 4 hrs; format: ADME, organism-based; parameters: dose 5 mg/kg, route intravenous
# [3] = Cytotoxicity against human HuH7 cells by Alamar blue assay; format: cell-based; conditions: Huh-7 cells
# [4] = molecular target: T1, Nuclear receptor subfamily 1 group I member 2 (Homo sapiens, UniProt O75469); experiment: Transactivation of human PXR expressed in human HepG2 cells by luciferase reporter gene assay; format: cell-based
# T1 sequence (O75469 whole entry): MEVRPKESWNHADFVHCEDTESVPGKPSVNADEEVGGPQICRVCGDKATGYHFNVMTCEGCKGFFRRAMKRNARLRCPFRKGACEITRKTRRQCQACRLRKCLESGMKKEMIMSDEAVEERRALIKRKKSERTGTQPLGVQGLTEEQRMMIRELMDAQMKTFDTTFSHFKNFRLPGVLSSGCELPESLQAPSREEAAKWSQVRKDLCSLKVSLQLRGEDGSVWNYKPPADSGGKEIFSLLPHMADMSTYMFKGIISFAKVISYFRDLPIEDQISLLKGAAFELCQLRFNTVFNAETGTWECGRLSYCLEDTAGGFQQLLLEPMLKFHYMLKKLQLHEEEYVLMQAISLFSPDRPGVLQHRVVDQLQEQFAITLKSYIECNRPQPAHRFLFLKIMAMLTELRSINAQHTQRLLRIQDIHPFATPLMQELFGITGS
# Hepatitis C virus [5] = experiment: Antiviral activity against Hepatitis C virus Con1 genotype 1b infected in human HuH7 cells after 3 days by FRET assay in presence of 40% human serum; format: functional, organism-based, Hepacivirus hominis; conditions: isolate Con1, Huh-7, 72 h
# [6] = Drug uptake in rat liver at 5 mg/kg, iv after 4 hrs; format: ADME, organism-based; parameters: dose 5 mg/kg, route intravenous; conditions: read-out: Drug uptake
# [7] = Drug uptake in rat liver at 10 mg/kg, po after 4 hrs; format: ADME, organism-based; parameters: dose 10 mg/kg, route oral; conditions: read-out: Drug uptake
# [8] = Plasma clearance in rat at 5 mg/kg, iv; format: ADME, organism-based; parameters: dose 5 mg/kg, route intravenous
# Hepatitis C virus [9] = experiment: Antiviral activity against Hepatitis C virus H77c genotype 1a infected in human HuH7 cells after 3 days by FRET assay; format: functional, organism-based, Hepacivirus hominis; conditions: genotype 1a H77, Huh-7, 72 h
# Liver microsome [10] = conditions: human, microsomes
# [11] = AUC (0 to 4 hrs) in rat at 5 mg/kg, iv; format: ADME, organism-based; parameters: time < 4 hr, dose 5 mg/kg, route intravenous; conditions: plasma
# Hepatitis C virus [12] = experiment: Antiviral activity against Hepatitis C virus Con1 genotype 1b infected in human HuH7 cells after 3 days by FRET assay; format: functional, organism-based, Hepacivirus hominis; conditions: isolate Con1, Huh-7, 72 h
# [13] = Permeability of the compound at pH 7.4 by PAMPA; format: physicochemical; conditions: read-out: permeability
# [14] = Solubility of the compound in amorphous form in phosphate buffer at pH 6.5; format: physicochemical
# [15] = AUC (0 to 4 hrs) in rat at 10 mg/kg, po; format: ADME, organism-based; parameters: time < 4 hr, dose 10 mg/kg, route oral; conditions: plasma
# Liver microsome [16] = conditions: rat, microsomes
# [17] = Aqueous solubility of the compound at pH 7.8; conditions: buffer
# [18] = Inhibition of Hepatitis C virus genotype 5a NS5B; parameters: species or system Hepatitis C virus subtype 5a
# Hepatitis C virus [19] = experiment: Antiviral activity against Hepatitis C virus genotype 2a by cell-based assay; format: functional, organism-based, Hepacivirus hominis
# [20] = Inhibition of Hepatitis C virus genotype 1a NS5B; parameters: species or system Hepatitis C virus subtype 1a
# [21] = Volume of distribution in rat at 5 mg/kg, iv; conditions: in vivo
# CYP2D6 = CYP2D6 (Homo sapiens, UniProt P10635); experiment: Inhibition of CYP2D6 (unknown origin)
# CYP2D6, sequence (P10635 whole entry): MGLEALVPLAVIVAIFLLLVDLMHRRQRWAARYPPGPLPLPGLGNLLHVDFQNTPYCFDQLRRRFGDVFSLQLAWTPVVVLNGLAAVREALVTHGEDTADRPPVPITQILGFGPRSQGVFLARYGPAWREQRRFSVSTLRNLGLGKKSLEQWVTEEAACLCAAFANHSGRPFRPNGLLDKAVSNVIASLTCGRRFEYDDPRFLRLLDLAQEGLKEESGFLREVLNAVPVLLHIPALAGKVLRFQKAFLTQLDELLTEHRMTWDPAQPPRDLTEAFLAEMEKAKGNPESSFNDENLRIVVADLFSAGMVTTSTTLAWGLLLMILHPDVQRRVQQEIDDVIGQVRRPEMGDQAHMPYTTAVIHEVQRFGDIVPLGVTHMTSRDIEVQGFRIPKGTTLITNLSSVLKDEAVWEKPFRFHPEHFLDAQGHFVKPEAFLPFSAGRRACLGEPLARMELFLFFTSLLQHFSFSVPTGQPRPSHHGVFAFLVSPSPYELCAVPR
# [22] = Aqueous solubility of the compound at pH 6.5; conditions: buffer
# Coxsackievirus = experiment: Antiviral activity against Coxsackievirus; format: functional, organism-based
# in vivo = conditions: rat, po, 10 mg/kg
# [23] = molecular target: T2, Voltage-gated inwardly rectifying potassium channel KCNH2 (Homo sapiens, UniProt Q12809); experiment: Inhibition of human ERG by fluorescence-based thallium flux assay
# T2 sequence (Q12809 whole entry): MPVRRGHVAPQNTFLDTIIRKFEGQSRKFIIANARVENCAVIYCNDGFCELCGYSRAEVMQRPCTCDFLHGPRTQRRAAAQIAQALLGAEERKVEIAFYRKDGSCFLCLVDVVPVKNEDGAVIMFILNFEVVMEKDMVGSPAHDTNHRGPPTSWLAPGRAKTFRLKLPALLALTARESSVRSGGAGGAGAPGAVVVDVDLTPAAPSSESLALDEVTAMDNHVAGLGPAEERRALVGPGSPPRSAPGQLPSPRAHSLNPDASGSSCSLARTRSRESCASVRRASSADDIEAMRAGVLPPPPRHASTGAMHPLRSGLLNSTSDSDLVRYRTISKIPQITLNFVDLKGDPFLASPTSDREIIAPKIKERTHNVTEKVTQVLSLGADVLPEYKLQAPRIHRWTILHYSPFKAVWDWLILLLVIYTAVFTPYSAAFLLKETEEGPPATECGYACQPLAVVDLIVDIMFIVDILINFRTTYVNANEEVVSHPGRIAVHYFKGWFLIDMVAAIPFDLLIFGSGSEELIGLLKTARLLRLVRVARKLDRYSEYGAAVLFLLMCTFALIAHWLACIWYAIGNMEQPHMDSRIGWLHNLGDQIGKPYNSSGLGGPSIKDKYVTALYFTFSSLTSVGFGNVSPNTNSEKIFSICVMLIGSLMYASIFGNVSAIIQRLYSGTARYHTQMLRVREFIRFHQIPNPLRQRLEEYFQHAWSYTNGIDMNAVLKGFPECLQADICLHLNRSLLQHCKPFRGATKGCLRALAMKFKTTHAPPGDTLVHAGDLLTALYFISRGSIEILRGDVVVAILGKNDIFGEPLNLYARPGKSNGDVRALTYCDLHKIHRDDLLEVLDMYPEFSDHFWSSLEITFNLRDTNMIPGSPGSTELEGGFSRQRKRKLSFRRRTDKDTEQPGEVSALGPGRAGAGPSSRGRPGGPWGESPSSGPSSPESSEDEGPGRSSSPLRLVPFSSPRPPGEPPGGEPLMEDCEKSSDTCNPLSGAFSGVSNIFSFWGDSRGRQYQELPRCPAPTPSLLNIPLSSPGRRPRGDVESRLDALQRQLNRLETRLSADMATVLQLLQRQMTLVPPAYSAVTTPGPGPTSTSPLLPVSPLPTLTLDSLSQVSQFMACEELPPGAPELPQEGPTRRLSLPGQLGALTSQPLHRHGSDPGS
# [24] = Inhibition of Hepatitis C virus genotype 4a NS5B; parameters: species or system Hepatitis C virus subtype 4a
# [25] = molecular target: T2, Voltage-gated inwardly rectifying potassium channel KCNH2; experiment: Inhibition of human ERG by patch-clamp assay
# [26] = system: Bovine viral diarrhea virus 1; experiment: Antiviral activity against Bovine viral diarrhea virus; format: functional, organism-based; conditions: Bovine viral diarrhea virus isolates and strains
# [27] = Inhibition of Hepatitis C virus genotype 3a NS5B; parameters: species or system Hepatitis C virus subtype 3a
# CYP1A2 = CYP1A2 (Homo sapiens, UniProt P05177); experiment: Inhibition of CYP1A2 (unknown origin)
# CYP1A2, sequence (P05177 whole entry): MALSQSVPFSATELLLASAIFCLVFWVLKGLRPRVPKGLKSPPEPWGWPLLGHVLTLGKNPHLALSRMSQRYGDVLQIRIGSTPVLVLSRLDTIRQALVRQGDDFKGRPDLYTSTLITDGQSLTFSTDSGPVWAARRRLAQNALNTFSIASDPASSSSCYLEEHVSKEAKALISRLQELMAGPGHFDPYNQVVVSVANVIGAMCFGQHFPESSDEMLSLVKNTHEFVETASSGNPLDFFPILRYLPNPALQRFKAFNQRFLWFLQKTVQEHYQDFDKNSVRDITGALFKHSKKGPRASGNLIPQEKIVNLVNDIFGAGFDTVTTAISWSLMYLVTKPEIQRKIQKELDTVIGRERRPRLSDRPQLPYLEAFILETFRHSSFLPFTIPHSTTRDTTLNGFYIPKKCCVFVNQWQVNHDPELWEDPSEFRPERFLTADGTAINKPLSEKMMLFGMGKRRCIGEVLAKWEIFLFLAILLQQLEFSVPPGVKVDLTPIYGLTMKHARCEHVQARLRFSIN
# [28] = Inhibition of Hepatitis C virus genotype 1b NS5B; parameters: species or system Hepatitis C virus subtype 1b
# [29] = Inhibition of HCV Con1 genotype 1b recombinant wild-type NS5B polymerase-mediated incorporation of radiolabeled nucleotides by scintillation proximity assay; parameters: species or system Hepatitis C virus (isolate Con1)
# [30] = system: unidentified influenza virus; experiment: Antiviral activity against Influenza virus; format: functional, organism-based
# [31] = Half life in rat at 10 mg/kg, po; conditions: in vivo
# [32] = Tmax in rat at 10 mg/kg, po; format: ADME, organism-based; parameters: dose 10 mg/kg, route oral; conditions: in vivo
# CYP2C19 = CYP2C19 (Homo sapiens, UniProt P33261); experiment: Inhibition of CYP2C19 (unknown origin)
# CYP2C19, sequence (P33261 whole entry): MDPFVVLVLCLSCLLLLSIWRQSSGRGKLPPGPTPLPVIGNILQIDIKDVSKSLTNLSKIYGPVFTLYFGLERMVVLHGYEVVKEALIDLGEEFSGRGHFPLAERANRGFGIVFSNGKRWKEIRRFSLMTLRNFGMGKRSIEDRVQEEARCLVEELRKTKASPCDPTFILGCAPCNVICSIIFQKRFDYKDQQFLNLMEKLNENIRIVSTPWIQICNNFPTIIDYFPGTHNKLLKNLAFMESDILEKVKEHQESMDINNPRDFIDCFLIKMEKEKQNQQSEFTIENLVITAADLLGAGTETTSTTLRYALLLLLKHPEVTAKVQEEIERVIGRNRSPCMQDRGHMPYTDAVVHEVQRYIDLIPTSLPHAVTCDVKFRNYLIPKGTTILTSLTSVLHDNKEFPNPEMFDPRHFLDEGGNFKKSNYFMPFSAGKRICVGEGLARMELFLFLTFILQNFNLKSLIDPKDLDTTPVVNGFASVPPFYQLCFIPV
# [33] = Half life in human liver microsomes; format: ADME
# [34] = Aqueous solubility of the compound at pH 2.2; conditions: buffer
# [35] = Cmax in rat at 5 mg/kg, iv; format: ADME, organism-based; parameters: dose 5 mg/kg, route intravenous; conditions: in vivo
# Homo sapiens = species: Homo sapiens; experiment: Inhibition of human phosphodiesterase 4 at 10 uM relative to control
# Coronaviridae = experiment: Antiviral activity against Coronavirus; format: functional, organism-based
# [36] = Protein binding in human serum; format: ADME, cell-free; conditions: read-out: PB (converted)
# [37] = Half life in cynomolgus monkey liver microsomes; format: ADME, Macaca fascicularis, Microsome
# [38] = Cmax in rat at 10 mg/kg, po; format: ADME, organism-based; parameters: dose 10 mg/kg, route oral; conditions: in vivo
# [39] = system: Human immunodeficiency virus; experiment: Antiviral activity against Human immunodeficiency virus; format: functional, organism-based; conditions: Human immunodeficiency virus 1
# Rattus norvegicus = experiment: AUC (0 to infinity) in rat at 5 mg/kg, iv; format: ADME, organism-based, Plasma; parameters: time infinity, dose 5 mg/kg, route intravenous; conditions: in vivo
# [40] = Half life in rat at 5 mg/kg, iv; conditions: in vivo
# PXR (NR1I2) = molecular target: T3, PXR (NR1I2) (Homo sapiens, UniProt O75469); experiment: Transactivation of human PXR expressed in human HepG2 cells at 5.56 uM by luciferase reporter gene assay relative to control; format: cell-based; conditions: HepG2 cells that express human PXR, read-out: %max
# T3 sequence (O75469 whole entry): T1 sequence (O75469 whole entry)
# [41] = Inhibition of human phosphodiesterase 4 by functional assay
# Enterovirus C = experiment: Antiviral activity against Poliovirus; format: functional, organism-based
# Enterovirus = experiment: Antiviral activity against Rhinovirus; format: functional, organism-based
# [42] = Half life in rat liver microsomes; format: ADME
# [43] = Half life in dog liver microsomes; format: ADME, Canis lupus familiaris
# [44] = AUC (0 to infinity) in rat at 10 mg/kg, po; format: ADME, organism-based; parameters: time infinity, dose 10 mg/kg, route oral; conditions: plasma
# Hepatitis C virus [45] = experiment: Antiviral activity against Hepatitis C virus genotype 1a by cell-based assay; format: functional, organism-based, Hepacivirus hominis; conditions: subtype 1a
# Cytochrome P450 3A4 = Cytochrome P450 3A4 (Homo sapiens, UniProt P08684); experiment: Inhibition of CYP3A4 (unknown origin); format: ADME
# Cytochrome P450 3A4, sequence (P08684 whole entry): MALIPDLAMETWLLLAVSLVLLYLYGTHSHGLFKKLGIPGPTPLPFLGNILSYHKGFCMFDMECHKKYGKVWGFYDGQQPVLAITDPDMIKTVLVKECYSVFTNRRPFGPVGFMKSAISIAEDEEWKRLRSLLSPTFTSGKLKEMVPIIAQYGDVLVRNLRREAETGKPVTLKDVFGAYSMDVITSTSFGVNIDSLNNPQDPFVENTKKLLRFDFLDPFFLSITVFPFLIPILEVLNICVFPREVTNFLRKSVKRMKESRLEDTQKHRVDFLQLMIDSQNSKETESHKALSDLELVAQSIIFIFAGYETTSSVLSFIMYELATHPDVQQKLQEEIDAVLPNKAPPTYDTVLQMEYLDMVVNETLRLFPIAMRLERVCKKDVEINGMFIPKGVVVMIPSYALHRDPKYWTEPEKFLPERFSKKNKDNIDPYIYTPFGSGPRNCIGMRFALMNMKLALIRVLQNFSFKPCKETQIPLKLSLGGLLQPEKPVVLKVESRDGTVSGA
# CYP2C9 = CYP2C9 (Homo sapiens, UniProt P11712); experiment: Inhibition of CYP2C9 (unknown origin)
# CYP2C9, sequence (P11712 whole entry): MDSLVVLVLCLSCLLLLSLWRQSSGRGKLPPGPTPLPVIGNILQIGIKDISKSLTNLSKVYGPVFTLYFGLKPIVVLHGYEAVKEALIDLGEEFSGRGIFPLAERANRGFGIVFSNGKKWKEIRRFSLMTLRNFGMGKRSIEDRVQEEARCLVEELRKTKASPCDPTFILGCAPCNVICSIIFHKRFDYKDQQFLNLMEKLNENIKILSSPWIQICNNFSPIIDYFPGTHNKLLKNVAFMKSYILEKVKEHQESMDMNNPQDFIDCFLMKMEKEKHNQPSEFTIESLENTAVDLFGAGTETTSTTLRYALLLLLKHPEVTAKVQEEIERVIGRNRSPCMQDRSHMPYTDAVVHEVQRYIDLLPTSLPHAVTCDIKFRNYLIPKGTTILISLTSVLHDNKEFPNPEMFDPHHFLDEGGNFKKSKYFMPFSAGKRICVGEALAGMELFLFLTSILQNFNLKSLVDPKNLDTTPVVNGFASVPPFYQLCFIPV
smiles,measurement,setting,value
COc1ccc2c(c1)C1CC1(C(=O)N1CC(C)(O)C1)Cn1c-2c(C2CCCCC2)c2ccc(C(=O)NS(=O)(=O)N(C)C)cc21 (racemic),concentration at 4 h,[1],0.025 µM
same,concentration at 4 h,[2],0.029 µM
same,CC50,[3],> 10000 nM
same,EC50,[4],> 50000 nM
same,EC50,Hepatitis C virus [5],56 nM
same,concentration at 4 h,[6],9.6 µM
same,concentration at 4 h,[7],3.7 µM
same,clearance,[8],14 mL/min/kg
same,EC50,Hepatitis C virus [9],14 nM
same,Stability,Liver microsome [10],81%
same,AUC(0-t) at 4 h,[11],9.8 µM·h
same,EC50,Hepatitis C virus [12],20 nM
same,Papp,[13],30 ×10⁻⁶ cm/s
same,solubility,[14],93 µg/mL
same,AUC(0-t) at 4 h,[15],0.139 µM·h
same,Stability,Liver microsome [16],85%
COc1ccc2c(c1)[C@@H]1C[C@]1(C(=O)N1[C@@H]3CC[C@H]1CN(C)C3)Cn1c-2c(C2CCCCC2)c2ccc(C(=O)NS(=O)(=O)N(C)C)cc21 [BECLABUVIR],solubility,[17],> 1600 µg/mL
same,CC50,[3],> 10000 nM
same,IC50,[18],5 nM
same,EC50,Hepatitis C virus [19],87 nM
same,EC50,Hepatitis C virus [5],28 nM
same,IC50,[20],3 nM
same,Vd,[21],2.7 L/kg
same,IC50,CYP2D6,> 40000 nM
same,solubility,[22],20 µg/mL
same,EC50,Coxsackievirus,> 14000 nM
same,bioavailability,in vivo,66%
same,IC50,[23],24500 nM
same,IC50,[24],20 nM
same,IC50,[25],12400 nM
same,EC50,[26],> 14000 nM
same,IC50,[27],2 nM
same,IC50,CYP1A2,> 40000 nM
same,IC50,[28],4 nM
same,IC50,[29],20 nM
same,EC50,[30],> 14000 nM
same,half-life,[31],8.3 h
same,EC50,Hepatitis C virus [9],3 nM
same,Stability,Liver microsome [10],90%
same,Tmax,[32],5.3 h
same,IC50,CYP2C19,> 40000 nM
same,Papp,[13],64 ×10⁻⁶ cm/s
same,half-life,[33],0.883 h
same,solubility,[34],> 1600 µg/mL
same,Cmax,[35],12.1 µM
same,inhibition,Homo sapiens,57%
same,EC50,Coronaviridae,> 14000 nM
same,fraction unbound,[36],0.02
same,half-life,[37],0.383 h
same,solubility,[14],29 µg/mL
same,Cmax,[38],3.26 µM
same,EC50,[39],> 14000 nM
same,AUC,Rattus norvegicus,30 µM·h
same,half-life,[40],11.5 h
same,activity at 5.56 µM,PXR (NR1I2),8.1%
same,IC50,[41],10000 nM
same,EC50,Enterovirus C,> 14000 nM
same,EC50,Enterovirus,> 14000 nM
same,half-life,[42],> 3.33 h
same,half-life,[43],> 3.33 h
same,AUC(0-inf),[44],39.3 µM·h
same,EC50,Hepatitis C virus [45],3 nM
same,IC50,Cytochrome P450 3A4,> 40000 nM
same,IC50,CYP2C9,> 40000 nM
same,Stability,Liver microsome [16],99%

# — ChEMBL document CHEMBL3124792, “Discovery and preclinical characterization of the cyclopropylindolobenzazepine BMS-791325, a potent allosteric inhibitor of the hepatitis C virus NS5B polymerase” (J Med Chem, 2014)
